{"source": "patent US8217074B2", "about": "“Use of sargachromenol” (Catholic University Industry Academic Cooperation Foundation, priority 2007, dated 2012)", "key": {"nerve cell": {"system": "nerve cell", "details": "Chi Kwan Tsang et al, Neuroscience, 2005; cited from earlier work"}, "[1]": {"system": "caspase-8, caspase-9 and caspase-3 in human keratinocytes HaCaT", "assay": "Western blot of apoptosis-related factors after pre-treatment and UVB irradiation", "format": "cell-based", "experimental": "In Example 4, it was confirmed that UV further enhances the apoptosis of human keratinocytes by sargachromenol. Thus, it was investigated whether UV has effect on sargachromenol-induced apoptosis-related factors. First, human keratinocytes HaCaT cells were cultured in the same manner as in Example 2-1 and transferred to a 10 cm plate, at 2×10^6 cells/well. After about 18 hours of serum starvation, each well was pre-treated with 0, 2 or […] sargachromenol for 30 minutes and UVB was irradiated. 8 hours later, the cells were lysed using RIPA buffer [12 mM EDTA, 137 mM NaCl, 20 mM Tris-HCl (pH 8.0), 1 mM Na3VO4 (Sigma-Aldrich, USA) 10 mM NaF (Sigma), 1 mM PMSF (Sigma), 1% Triton X-100, 10% glycerol and protease inhibitor cocktail (Roche, Germany)]. Electrophoresis (SDS-PAGE) was carried out after determination of protein concentration. Western blot analysis was carried out on the isolated protein as in Example 3. Cells not treated with sargachromenol were used as control group."}, "[2]": {"system": "human keratinocytes HaCaT", "assay": "Apoptosis by FACS analysis (Propidium Iodide staining)", "format": "cell-based", "details": "24 hours", "experimental": "Apoptosis effect of the sargachromenol of the present invention on human keratinocytes was investigated by FACS and TUNEL analysis. First, for FACS analysis, HaCaT cells were cultured in the same manner as in Example 2-1, transferred to a 10 cm plate, with 2×10^6 cells/well, and incubated at 37° C. in a 5% CO2 incubator for 24 hours. After treating the cells with 0, 1, 2 or 5 μg/mL sargachromenol, they were incubated at 37° C. in a 5% CO2 incubator for 24 hours. Then, the cells were released from the plate using trypsin, and fixed using 4% paraformaldehyde. The fixed cells were treated with 70% alcohol to increase cell membrane permeability. Then, the cells were stained with Propidium Iodide (PI) solution for 30 minutes, and subjected to FACS analysis. Cells treated with DMSO only and not with sargachromenol were used as control group."}, "[3]": {"system": "caspase-8 and caspase-3 in human keratinocytes HaCaT", "assay": "Western blot of apoptosis-related factors", "format": "cell-based", "experimental": "Human keratinocytes HaCaT cells were cultured in the same manner as in Example 2-1 and transferred to a 10 cm plate, at 2×10^6 cells/well. After about 18 hours of serum starvation, the cells were treated with 0, 1, 2 or 5 μg/mL sargachromenol. 18 hours later, the cells were lysed using RIPA buffer [12 mM EDTA, 137 mM NaCl, 20 mM Tris-HCl (pH 8.0), 1 mM Na3VO4 (Sigma-Aldrich, USA) 10 mM NaF (Sigma), 1 mM PMSF (Sigma), 1% Triton X-100, 10% glycerol and protease inhibitor cocktail (Roche, Germany)]. The lysed cells were put in a 1.5 mL tube and, after pipetting, put on ice for 20 minutes. The lysate was centrifuged at 14000 rpm for 20 minutes, and protein was isolated from the supernatant. Sample concentration of the isolated protein was determined using a BCA protein analysis kit (Pierce, Rockford, Ill.) and electrophoresis (SDS-PAGE) was carried out. Western blot analysis was carried out on the protein isolated by the electrophoresis. Western blot analysis was carried out as follows. After electrophoresis of the sample, the protein was transferred from the gel to a polyvinylidene fluoride membrane (Pall Corporation). Then, after blocking the membrane at room temperature for 2 hours using 3% BSA solution (Amresco, USA), it was treated with primary antibodies and reaction was carried out at room temperature for 2 hours. The primary antibodies were anti-caspase-3 antibody, anti-caspase-8 antibody and anti-actin antibody (Cell Signaling Technology, Beverly, Mass.), which are antibodies associated in apoptosis-related signaling. After reaction with the primary antibodies, it was washed with TBS for about 15 minutes and further reacted for 45 minutes by treating with secondary antibodies. The secondary antibodies were goat anti-mouse antibody and goat anti-rabbit antibody (Zymed, San Francisco, USA). Then, after washing sufficiently with TBS for over 30 minutes, protein was identified using an ECL detection kit (Santa Cruz). Cells not treated with sargachromenol were used as control group."}, "[4]": {"system": "UVB irradiated human keratinocytes HaCaT", "assay": "MTT cell viability after sargachromenol pre-treatment and UVB irradiation", "format": "cell-based", "experimental": "Synergic apoptosis effect by UV and sargachromenol on human keratinocytes was investigated. HaCaT cells were cultured in the same manner as in Example 2-1 and transferred to a 6-well plate, at 3×10^5 cells/well. After about 12 hours of serum starvation, each well was pre-treated with 0, 0.5, 1, 2, 5 or 10 μg/mL sargachromenol, and UVB was irradiated at 150 J/m^2 (FS24T12/UVB/HO, Voltare Co., Fairfield, Conn., USA, 290-320 nm). 18 hours later, without removing the medium, each well was treated with 5 mg/mL MTT reagent at a concentration of 20 μL/100 μL, and incubated for 2 hours. Subsequently, after removing the medium, 150 μL of DMSO was added to each well and cell viability was analyzed by measuring absorbance at 540 nm using a spectrophotometer. Cells non-treated with sargachromenol were used as control group. Cell viability was calculated as relative value of that of the control group (100%)."}, "[5]": {"system": "human keratinocytes HaCaT", "assay": "Apoptosis by TUNEL analysis", "format": "cell-based", "details": "increasing concentration, 24 hours", "experimental": "For TUNEL analysis, the cells were incubated for 24 hours as above, and transferred to a chamber slide using an ApopTag® fluorescein in situ apoptosis detection kit. After adhering the cells to the bottom well, they were washed with pH 7.4 PBS solution. The chamber slide was immersed in PBS solution of 4% paraformaldehyde for 30 minutes at room temperature in order to completely fix the cells. And, the cells were washed with PBS and immersed in blocking solution (1% H2O2 in methanol) for 30 minutes at room temperature in order to inhibit the action of endogenous peroxidase. Then, the cells were washed with PBS and immersed in 0.1% sodium citrate solution containing 0.1% Triton X-100 at 4° C. for 2 minutes in order to make the cells permeable. For labeling, the cells were washed with PBS two more times and diluted TUNEL reaction mixture was added to the slide. After incubating in a 37° C. humidified chamber for 60 minutes, the slide was washed with PBS. Then, the slide was further incubated in TBS solution containing 1% BSA and 5% FBS for 20 minutes. After adding anti-fluorescein antibody conjugated with horse-radish peroxidase to the culture medium and reacting at 37° C. for 1 hour, the slide was washed with PBS and DAB-matrix solution was added. Hematoxylin solution was added for counter staining. […]"}, "[6]": {"system": "human keratinocytes HaCaT", "assay": "Cytotoxicity analysis by MTT cell viability assay", "format": "cell-based", "details": "0, 1, 2, 5 or 10 μg/mL, 24 hours", "experimental": "(§1) Cytotoxicity effect of the sargachromenol of the present invention isolated and purified in Example 1 on human keratinocytes HaCaT was investigated by MTT cell viability analysis.\n(§2) HaCaT cells were obtained from Professor N. Fusenig of the German Cancer Research Institute. The HaCaT cells were incubated in DMEM medium containing 10% FBS (Hyclone), 100 unit/mL penicillin and 100 μg/mL streptomycin at 37° C., in a 5% CO2 incubator. During the incubation, cell viability and number of cells were measured periodically using a hemacytometer (Neubauer, Germany) by the trypan blue exclusion method. In all experiments, initial cell viability was maintained over 95%.\n(§3) The cultured HaCaT cells were transferred to a 96-well plate, with 5×10^4 cells/well, and incubated at 37° C. in a 5% CO2 incubator for 24 hours. Then, the cultured HaCaT cells were treated with 0, 1, 2, 5 or 10 μg/mL sargachromenol, and further incubated at 37° C. in a 5% CO2 incubator for 24 hours. Then, without removing the medium, each well was treated with 5 mg/mL MTT reagent at a concentration of 20 μL/100 μL, and incubated for 2 hours. Subsequently, after removing the medium, 150 μL of DMSO was added to each well and cell viability was analyzed by measuring absorbance at 540 nm using an ELISA reader (Molecular Devices, USA). Cells non-treated with sargachromenol were used as control group. Cell viability was calculated as relative value of that of the control group (100%)."}, "[7]": {"assay": "Cytotoxicity analysis by MTT cell viability assay", "format": "cell-based, human", "details": "human, HaCaT keratinocytes", "experimental": "as §1, §2, §3"}}, "data": [{"smiles": "CC(C)=CCC/C(=C/CC/C(C)=C/CCC1(C)C=Cc2cc(O)cc(C)c2O1)C(=O)O", "note": "(centres unmarked) [sargachromenol]", "values": [{"measurement": "NGF (nerve growth factor)-dependent nerve cell growth promoting activity", "setting": "nerve cell", "value": "reported to have NGF (nerve growth factor)-dependent nerve cell growth promoting activity"}, {"measurement": "activation of caspase", "setting": "[1]; 2 or 5 μg/mL sargachromenol only, no UVB, 8 hours", "value": "activation of caspase was not observed"}, {"measurement": "cleaved caspases", "setting": "[1]; pre-treated with sargachromenol and irradiated with UVB, 8 hour later", "value": "cleaved caspase-8, caspase-9 and caspase-3 were observed"}, {"measurement": "apoptosis effect, concentration comparison (FACS)", "setting": "[2]; 5 μg/mL versus 1 μg/mL", "value": "better at treatment with 5 μg/mL than 1 μg/mL"}, {"measurement": "apoptosis effect versus control group (FACS)", "setting": "[2]; 1, 2 or 5 μg/mL, control DMSO only", "value": "superior in the cells treated with sargachromenol than in the control group"}, {"measurement": "cleavage of caspase-8 and caspase-3", "setting": "[3]; 0, 1, 2 or 5 μg/mL, higher concentration, no UV", "value": "caspase-8 and caspase-3 were cleaved"}, {"measurement": "quantity of cleaved protein", "setting": "[3]; 0, 1, 2 or 5 μg/mL, no UV", "value": "increased in a concentration-dependent manner"}, {"measurement": "activation of caspase", "setting": "[3]; 5 μg/mL sargachromenol only, 18 hours later", "value": "Activation of caspase was observed"}, {"measurement": "viability at 1 µg/mL", "setting": "[4]; Homo sapiens, HaCaT, light or radiation study, 1 μg/mL pre-treatment, UVB 150 J/m^2, 18 hours later", "value": "~25", "unit": "%"}, {"measurement": "apoptosis versus cells without UV", "setting": "[4]; pre-treated with sargachromenol and irradiated with UV, compared with same condition without UV", "value": "much more increased apoptosis"}, {"measurement": "number of TUNEL-positive (dead) cells", "setting": "[5]", "value": "increased as the concentration of the sargachromenol of the present invention increased"}, {"measurement": "cell viability, concentration dependence", "setting": "[6]", "value": "cell viability decreased as the concentration of sargachromenol increased"}, {"measurement": "viability at 24 h, 5 μg/mL", "setting": "[7]; 5 μg/mL sargachromenol only, without UV irradiation", "value": "≥ 40", "unit": "%"}, {"measurement": "cytotoxicity at 24 h, 5 μg/mL", "setting": "[7]; 5 μg/mL sargachromenol, 24 hours, relative to control group (100%), no UV, read-out: reduction of cell viability", "value": 40, "unit": "%"}]}]}
